A word on the IC50: it is the concentration that gives 50% inhibition. Read a high IC50 as weaker potency in that assay. Broadly, the GI50 is the concentration that inhibits growth by half. In general, TGI refers to how far tumour growth fell short of that in controls. High values mean a stronger effect on the tumour, low ones a weaker effect on the tumour.

The target in one data set is BRD4-BD2 (Homo sapiens, UniProt O60885). Description: BRD4 AlphaLISA assay, BRD4-BD2. Format: binding. As to conditions: displacement of acetyl-histone H4 peptide (Lys5, 8, 12, 16). The source says:
This bead-based proximity assay is based on the competitive displacement of a histone peptide (acetyl-histone H4/Lys5, 8, 12, 16) from the human bromodomain [22].
For orientation: In Alpha technology, singlet oxygen from a donor bead excites a nearby acceptor bead.

A further data set concerns Ty-82 BRD4-NUT. The data set can be described thus: Cell proliferation assay (Alamar readout), Ty-82. Format: cell-based, human. To be noted: Homo sapiens, TY82, 96h, read-out: geomean GI50. On the procedure: (§1) The NUT Carcinoma cell line Ty-82 was purchased from JCRB Japan No. 1330 and cultivated in RPMI 1640 supplemented with 10% fetal calf serum (FCS). The NC cell lines 10–15, 14169 and 10326 were in-licensed from Christopher French, Brigham & Womens Hospital, Boston, and were cultivated in DMEM supplemented with glutamax and 10% FCS.
(§2) Viability assays were performed on 96-well flat-bottom microtiter plates and incubated with Alamar Blue solution (Invitrogen, Carlsbad, US-CA). The effects of drug combinations were analysed using the Bliss Independence Model.
(§3) Dose response curves (96h cell proliferation assay - Alamar readout) on four NC cell lines with BET inhibitor BI 894999. Yellow bar: readout t zero (before adding of compound). Green bar: DMSO control (max proliferation).
(§4) Dose response curves (96h cell proliferation assay - Alamar readout) on four NC cell lines with multiple BET inhibitors.

Another data set relates to 10–15 BRD4-NUT. Description: Cell proliferation assay (Alamar readout), 10–15. Format: cell-based, human. As to conditions: Homo sapiens, 96h, read-out: geomean GI50. On the procedure: as §1, §2, §3, §4
For another data set, the system named is 14169 BRD4-NUT. The data set can be described thus: Cell proliferation assay (Alamar readout), 14169. Format: cell-based, human. To be noted: Homo sapiens, 96h, read-out: geomean GI50. How it is done:
as §1, §2, §3, §4

Another data set has as its system 10326 BRD3-NUT. The data set can be described thus: Cell proliferation assay (Alamar readout), 10326. Format: cell-based, human. To be noted: Homo sapiens, 96h, read-out: geomean GI50. On the procedure: as §1, §2, §3, §4
A further data set deals with NC cell lines. The data set can be described thus: Cell proliferation assays, all four NC lines (summary). Format: cell-based, human. How it is done: as §1, §2
Another data set deals with T1, BRD3-NUT.
T1 construct: endogenous in cells; host or cells: 10326 NUT carcinoma cells, in culture (A11) and as subcutaneous xenograft tumours in NOG mice (A26)
The data set can be described thus: Immunofluorescence staining of NUT megadomains, 10326. Format: cell-based, human. To be noted: 10326 cells; 30 minutes treatment. On the procedure:
Cells were seeded on four-well chamber slides (Merck Millipore, #PEZGS0416). After treatment, cells were fixed with 4% PFA (16% Solution, Thermo Fischer #28908 Paraformaldehyde, diluted 1:4 in PBS), permeabilised with 0,1% TX-100 (Sigma #93443, diluted in PBS). After blocking in blocking buffer (10% normal goat serum, Sigma #G9023–10ml, diluted in blocking solution: 2% BSA/PBS, Sigma #A7284–50ml, diluted 1:15 in PBS), the first antibody mAB rabbit anti-NUT 1:1000 (clone C52B1, Cell Signaling #3625) in blocking buffer was added, followed by incubation with the 2nd antibody goat anti-rabbit Alexa*488 1:1000 (Thermo Fisher, #A-11008) in blocking buffer in the dark. Cells were mounted with ProLong Gold Antifade Mountant with DAPI (Thermo Fisher, #P36931) and analysed using a Laser scanning microscope (LSM700).
[…] Upper row: antibody against NUT, lower row: DAPI.

The nature of data set [1]: Plasma pharmacokinetics in patients (NCT02516553). Format: in vivo. How it is done: Schedule B (NCT02516553): daily oral treatment from Day 1 to Day 14 at 2.5 mg/day followed by a week-off in 3-week cycles. Schedule C (NCT02516553): one week-on, one week-off treatment, repeated every two weeks in 4-week cycles with, at each treatment week, a loading dose (6 mg) on Day 1 followed by a maintenance dose (3 mg per day) on the following 6 days.

The test system of data set [2] is 10326 xenograft (BRD3-NUT). The data set can be described thus: 10326 NC xenograft model. It is filed as in vivo. To be noted: 2 mg/kg BI 894999. The text has this:
Mice were group-housed (8–10 mice per cage) under pathogen-free and controlled environmental conditions (21 ± 1.5 C temperature, 55 ± 10% humidity) in an AAALAC accredited facility and handled according to the institutional, governmental and European Union guidelines (Austrian Animal Protection Laws, GV-SOLAS and FELASA guidelines). Animal studies were approved by the internal ethics committee and the local government committee. Mice were 6- to 8-week-old female CIEA NOG purchased from Taconic, Denmark (NOD.Cg-Prkdc^scid Il2rg^tm1Sug/JicTac). 5 × 10^6 NC tumour cells were injected subcutaneously into the right flank of the mice (1 site per mouse). Mice were randomly distributed between the treatment and the vehicle control when tumours were well established and had reached volumes of 100–150 mm^3. Compounds were suspended in 0.5% Natrosol and administered once daily intra-gastral by gavage needle. Tumour diameters were measured three times a week with a calliper. […] Within each subtopic the p-values of the efficacy parameters were adjusted for multiple comparisons according to Bonferroni–Holm. The p-values of the tolerability parameter remained unadjusted in order not to overlook a possible adverse effect. The level of significance was fixed at α = 5%. An adjusted p-value of less than 0.05 was considered to show a statistically significant difference between the groups. The statistical evaluation was prepared using the software Graph Pad Prism.

The next data set deals with Ki67. Description: IHC of 10326 xenograft tumours, Ki67. It is filed as in vivo, mice. To be noted: day 21, BI 894999 monotherapy 2 mg/kg. On the procedure:
Immunohistochemistry was performed on formalin-fixed, paraffin-embedded tumour tissue using antibodies against human Ki67(Cell Signaling #9027, 1:400 dilution), anti-human mitochondria (Abcam ab92824, 1:1000 dilution) and against endogenous NUT protein (Cell Signaling #3625, 1:50 dilution) used to detect NUT fusion proteins. Digital images of whole tissue sections were acquired using a Leica SCN400 histology scanner (Leica Microsystems). Ki67-positive index was evaluated using Halo Software V. 3.2 (Indica lab). Regions of interest (ROIs) within the tissue sections were first identified using Halo Software via machine learning technology across pathological samples and tissue control, within these ROIs, nuclei were detected and classified as positive or negative based on IHC staining thresholds.
Quantification of Ki67 staining in NC 10326 tumor sections after treatment with BI 894999, CCS1477, or the combination thereof.

The mark [3] stands for this setting: GI50, depending on the NC cell line.

Read-outs that look alike come from different tables or passages of the source.

Regarding `CNc1nc(-c2nc3ccc(N4CCN(C)CC4)cc3n2Cc2ccccc2)cn2c(C)nnc12` [BI 894999], the half-maximal inhibitory concentration (IC50) at BRD4-BD2 stood at 41 ± 30 nM. For the same molecule, the GI50 in the data set on Ty-82 BRD4-NUT is 2.6 nM; with 10–15 BRD4-NUT, 1.7 nM; with 14169 BRD4-NUT it was 0.9 nM; in the data set with 10326 BRD3-NUT, 1.2 nM; with NC cell lines (Homo sapiens, TY82, Ty-82, 10–15, 14169, 10326, read-out: GI50 (geomean), range over all NC lines), 0.9 to 2.6 nM. Moreover, the “fold more potent than JQ1 and GSK525762” value in the data set with NC cell lines (setting [3]) is on record as 40–60 fold. The “more potent than the dual BET/p300 inhibitor NEO2734” value in the data set on NC cell lines (setting [3]) was 10–20. The “concentration at which BRD3-NUT detaches from chromatin” value in the data set on BRD3-NUT fell in the range of 3 to 10 nM. Also, the Cmax was around 0.02 µM in data set [1] (Schedule C, 6 mg loading/3 mg maintenance, Day 1, 19 patients, read-out: maximal plasma concentration (mean Cmax)); 0.005 µM in [1] (human, plasma, oral, 2.5 mg, Schedule B, 2.5 mg daily, Day 1, 55 patients, read-out: maximum plasma concentration (mean Cmax)); 0.019 µM in data set [1] (human, plasma, oral, 6 mg, Schedule C, 6 mg loading/3 mg maintenance, Day 1, 19 patients, read-out: maximal plasma concentration (mean Cmax)). In data set [2], the tumour growth inhibition (TGI) came out at 99%. The “cell proliferation as assessed by Ki67 levels” value with Ki67 is on record as “reduced cell proliferation”.

The record behind these values is PMC9346113, “Therapeutic impact of BET inhibitor BI 894999 treatment: backtranslation from the clinic” (British Journal of Cancer, 2022).
